This passage reports IC50 results from US11739098B2 (BRISTOL-MYERS SQUIBB COMPANY, priority 2017, dated 2023).

Common to all, as to type: cell-based
One assay concerns the target T1, human TLR8 (Homo sapiens, UniProt Q9NR97).
T1 construct: host or cells: HEK-Blue cells (HEK293-derived reporter line)
T1 sequence (Q9NR97 27-1041): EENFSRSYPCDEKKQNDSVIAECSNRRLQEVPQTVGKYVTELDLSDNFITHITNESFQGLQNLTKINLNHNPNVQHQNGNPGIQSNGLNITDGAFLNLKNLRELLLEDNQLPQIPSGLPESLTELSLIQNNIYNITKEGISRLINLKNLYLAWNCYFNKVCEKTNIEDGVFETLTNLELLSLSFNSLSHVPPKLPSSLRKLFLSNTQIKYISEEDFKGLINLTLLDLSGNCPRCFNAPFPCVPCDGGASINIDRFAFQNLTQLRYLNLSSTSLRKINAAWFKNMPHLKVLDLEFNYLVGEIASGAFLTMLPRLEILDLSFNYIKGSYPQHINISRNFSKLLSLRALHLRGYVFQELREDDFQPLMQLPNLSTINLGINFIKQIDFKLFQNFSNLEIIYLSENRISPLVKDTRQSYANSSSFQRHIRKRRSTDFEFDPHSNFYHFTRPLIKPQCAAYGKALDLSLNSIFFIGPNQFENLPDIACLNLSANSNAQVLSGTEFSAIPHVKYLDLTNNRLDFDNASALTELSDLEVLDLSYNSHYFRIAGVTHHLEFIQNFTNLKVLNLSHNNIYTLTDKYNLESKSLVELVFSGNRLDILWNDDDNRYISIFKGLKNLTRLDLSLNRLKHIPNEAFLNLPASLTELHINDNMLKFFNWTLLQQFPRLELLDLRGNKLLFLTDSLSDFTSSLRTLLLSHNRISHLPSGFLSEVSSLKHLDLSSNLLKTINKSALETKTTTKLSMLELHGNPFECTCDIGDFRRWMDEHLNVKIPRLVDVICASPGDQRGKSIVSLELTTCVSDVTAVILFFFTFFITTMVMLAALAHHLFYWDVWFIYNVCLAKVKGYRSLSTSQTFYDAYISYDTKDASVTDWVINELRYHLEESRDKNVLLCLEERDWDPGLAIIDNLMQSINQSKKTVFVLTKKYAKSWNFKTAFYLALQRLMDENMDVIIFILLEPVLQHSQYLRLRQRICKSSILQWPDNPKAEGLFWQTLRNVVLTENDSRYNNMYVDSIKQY
The experiment in a line: TLR8 inhibition reporter assay (HEK-Blue cells, SEAP reporter, R848 stimulation). To be noted: HEK-Blue cells overexpressing human TLR8, SEAP reporter, R848 15.9 μM. An outline of the steps: (§1)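 Agonists (final): TLR7 gardiquimod 7.5 μM; TLR8 R848 15.9 μM; TLR9 ODN2006 5 nM. HEK-Blue reporter cells, 30 min RT compound pre-incubation, 0.05 nM–50 μM dose range, 22 h at 37 °C, colorimetric SEAP detection medium. % inhibition relative to agonist+DMSO and known-inhibitor wells.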
On the technique in general: Reporter assays use an easily measured gene product as a stand-in for the process of interest.

Another assay concerns the target T2, human TLR9 (Homo sapiens, UniProt Q9NR96).
T2 construct: host or cells: HEK-Blue cells (HEK293-derived reporter line)
T2 sequence (Q9NR96 26-1032): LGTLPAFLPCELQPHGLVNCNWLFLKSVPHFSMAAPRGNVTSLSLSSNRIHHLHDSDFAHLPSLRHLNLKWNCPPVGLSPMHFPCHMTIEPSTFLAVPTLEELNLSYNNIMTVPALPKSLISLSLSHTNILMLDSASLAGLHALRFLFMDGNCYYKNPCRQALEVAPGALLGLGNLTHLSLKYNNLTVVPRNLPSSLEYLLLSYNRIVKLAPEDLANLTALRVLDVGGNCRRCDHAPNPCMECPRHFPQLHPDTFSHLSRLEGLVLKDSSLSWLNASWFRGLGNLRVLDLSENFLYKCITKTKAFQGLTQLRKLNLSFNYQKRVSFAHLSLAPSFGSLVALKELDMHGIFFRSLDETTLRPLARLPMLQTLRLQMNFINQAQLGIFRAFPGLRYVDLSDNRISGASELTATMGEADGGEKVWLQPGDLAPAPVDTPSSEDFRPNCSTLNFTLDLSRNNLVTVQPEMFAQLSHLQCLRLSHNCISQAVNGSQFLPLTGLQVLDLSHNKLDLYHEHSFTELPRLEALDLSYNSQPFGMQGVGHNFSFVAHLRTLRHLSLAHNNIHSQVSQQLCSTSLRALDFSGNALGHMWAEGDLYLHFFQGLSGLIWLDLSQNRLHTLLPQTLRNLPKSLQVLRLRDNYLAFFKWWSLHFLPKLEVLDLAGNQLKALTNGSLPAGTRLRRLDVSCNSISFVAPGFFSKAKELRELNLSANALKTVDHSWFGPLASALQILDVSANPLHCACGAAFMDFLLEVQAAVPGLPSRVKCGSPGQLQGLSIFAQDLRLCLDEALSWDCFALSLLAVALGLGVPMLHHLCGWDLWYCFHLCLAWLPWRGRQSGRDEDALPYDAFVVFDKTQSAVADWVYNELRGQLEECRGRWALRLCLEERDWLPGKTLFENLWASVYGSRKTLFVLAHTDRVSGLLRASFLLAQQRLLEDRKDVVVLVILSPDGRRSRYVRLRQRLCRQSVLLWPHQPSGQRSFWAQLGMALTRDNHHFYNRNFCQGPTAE
The experiment in a line: TLR9 inhibition reporter assay (HEK-Blue cells, SEAP reporter, ODN2006 stimulation). Conditions: HEK-Blue cells overexpressing human TLR9, SEAP reporter, ODN2006 5 nM. An outline of the steps:
as §1

The next assay deals with T3, human TLR7 (Homo sapiens, UniProt Q9NYK1).
T3 construct: host or cells: HEK-Blue cells (HEK293-derived reporter line)
T3 sequence (Q9NYK1 27-1049): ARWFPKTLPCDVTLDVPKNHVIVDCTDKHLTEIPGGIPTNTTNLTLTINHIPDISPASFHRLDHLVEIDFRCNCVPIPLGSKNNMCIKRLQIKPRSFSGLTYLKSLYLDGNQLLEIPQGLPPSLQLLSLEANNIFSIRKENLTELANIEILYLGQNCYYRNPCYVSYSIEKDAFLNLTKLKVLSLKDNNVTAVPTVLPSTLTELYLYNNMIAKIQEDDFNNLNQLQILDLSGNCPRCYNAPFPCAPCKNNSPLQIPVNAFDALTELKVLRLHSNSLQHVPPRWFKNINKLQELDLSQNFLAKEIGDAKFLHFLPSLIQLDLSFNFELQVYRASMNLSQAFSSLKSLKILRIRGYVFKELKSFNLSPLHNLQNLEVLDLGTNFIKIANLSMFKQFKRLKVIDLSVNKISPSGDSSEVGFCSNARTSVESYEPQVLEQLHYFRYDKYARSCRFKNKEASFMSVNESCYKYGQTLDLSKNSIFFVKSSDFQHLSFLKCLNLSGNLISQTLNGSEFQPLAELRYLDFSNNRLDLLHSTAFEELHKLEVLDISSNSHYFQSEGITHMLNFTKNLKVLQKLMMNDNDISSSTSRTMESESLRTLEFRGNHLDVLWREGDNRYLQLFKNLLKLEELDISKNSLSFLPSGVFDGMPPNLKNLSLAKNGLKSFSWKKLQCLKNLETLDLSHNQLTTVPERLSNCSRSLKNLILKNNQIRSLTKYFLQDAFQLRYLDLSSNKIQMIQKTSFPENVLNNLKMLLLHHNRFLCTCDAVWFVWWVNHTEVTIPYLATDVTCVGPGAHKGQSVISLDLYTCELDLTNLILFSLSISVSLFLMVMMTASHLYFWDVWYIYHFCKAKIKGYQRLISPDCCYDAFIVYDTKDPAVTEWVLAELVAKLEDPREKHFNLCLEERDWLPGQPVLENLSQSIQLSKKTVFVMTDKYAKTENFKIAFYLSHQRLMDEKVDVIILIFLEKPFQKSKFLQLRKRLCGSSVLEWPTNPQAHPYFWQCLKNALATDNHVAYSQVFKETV
Briefly: TLR7 inhibition reporter assay (HEK-Blue cells, SEAP reporter, gardiquimod stimulation). To be noted: HEK-Blue cells overexpressing human TLR7, SEAP reporter, gardiquimod 7.5 μM. The method, boiled down:
as §1

As usually defined, the IC50 is the concentration needed to halve the response being measured. Turning to `CNC(=O)CN1CCC(c2ccc3[nH]c(-c4cc(C)c5oc(C)nc5c4)c(C(C)C)c3c2)CC1` [Example 339, 2-(4-(2-(2,7-dimethylbenzo[d]oxazol-5-yl)-3-isopropyl-1H-indol-5-yl)piperidin-1-yl)-N-methylacetamide], the IC50 was 0.1 to 1 µM against human TLR8, 1 to 50 µM at human TLR9 and below 0.1 µM against human TLR7.
`CC(C)c1c(-c2ccnc3[nH]ncc23)[nH]c2ccc(C3CCN(C(=O)CN(C)C(C)C)CC3)cc12` [Example 585, 2-(isopropyl(methyl)amino)-1-(4-(3-isopropyl-2-(1H-pyrazolo[3,4-b]pyridin-4-yl)-1H-indol-5-yl)piperidin-1-yl)ethan-1-one]: the IC50 was below 0.1 µM against human TLR8, 1 to 50 µM against human TLR9 and below 0.1 µM against human TLR7.
For the compound `CCc1c(-c2cc3cn(C)nc3cn2)[nH]c2ccc(C3CCNCC3)cc12` [Example 98, 5-(3-ethyl-5-(piperidin-4-yl)-1H-indol-2-yl)-2-methyl-2H-pyrazolo[3,4-c]pyridine], the 50% inhibitory concentration (IC50) is 0.1 to 1 µM at human TLR8, 1 to 50 µM at human TLR9 and 1 to 50 µM at human TLR7.
With `COc1cc(-c2[nH]c3ccc(C4CCN(C(=O)CN(C)C)CC4)cc3c2C(C)C)cc2nc(C)cn12` [Example 541, 2-(dimethylamino)-1-(4-(3-isopropyl-2-(5-methoxy-2-methylimidazo[1,2-a]pyridin-7-yl)-1H-indol-5-yl)piperidin-1-yl)ethan-1-one], the IC50 on human TLR8, against human TLR9 and against human TLR7 was 0.1 to 1 µM each time.
With `CC(C)c1c(-c2ccnc3[nH]ncc23)[nH]c2ccc(C3CCN(CCN4CCCCCC4)CC3)cc12` [Example 660, 4-(5-(1-(2-(azepan-1-yl)ethyl)piperidin-4-yl)-3-isopropyl-1H-indol-2-yl)-1H-pyrazolo[3,4-b]pyridine], the values for the half-inhibitory concentration (IC50) at human TLR8, against human TLR9 and against human TLR7 were below 0.1 µM, 0.1 to 1 µM and below 0.1 µM, respectively.
On to `Cc1c(-c2[nH]c3ccc(C4CCN(CC(=O)N(C)C)CC4)cc3c2C(C)C)cn2ccnc2c1Cl` [Example 415, 2-(4-(2-(8-chloro-7-methylimidazo[1,2-a]pyridin-6-yl)-3-isopropyl-1H-indol-5-yl)piperidin-1-yl)-N,N-dimethylacetamide], for which the IC50 was below 0.1 µM against human TLR8, 1 to 50 µM against human TLR9 and below 0.1 µM on human TLR7.
As for `Cc1cc(-c2[nH]c3ccc(C4CCN(C(=O)CN(C)C(C)C)CC4)cc3c2C(C)C)cn2nnnc12` [Example 480, 2-(isopropyl(methyl)amino)-1-(4-(3-isopropyl-2-(8-methyltetrazolo[1,5-a]pyridin-6-yl)-1H-indol-5-yl)piperidin-1-yl)ethan-1-one], the figures for the IC50 against human TLR8, against human TLR9 and on human TLR7 were below 0.1 µM, 1 to 50 µM and below 0.1 µM, respectively.
Regarding `CC(C)c1c(-c2ccnc3[nH]ncc23)[nH]c2ccc(C3CCN(C(=O)CN4CCCN(C)CC4)CC3)cc12` [Example 577, 1-(4-(3-isopropyl-2-(1H-pyrazolo[3,4-b]pyridin-4-yl)-1H-indol-5-yl)piperidin-1-yl)-2-(4-methyl-1,4-diazepan-1-yl)ethan-1-one], the concentration for half-maximal inhibition (IC50) against human TLR8 is below 0.1 µM; on human TLR9 it was 0.1 to 1 µM; against human TLR7 it was below 0.1 µM.
With `CCOc1cc(-c2[nH]c3ccc(C4CCNCC4)cc3c2C(C)C)cc2ncnn12` [Example 157, 5-ethoxy-7-(3-isopropyl-5-(piperidin-4-yl)-1H-indol-2-yl)-[1,2,4]triazolo[1,5-a]pyridine], the half-maximal inhibitory concentration (IC50) at human TLR8 is below 0.1 µM; on human TLR9, 0.1 to 1 µM; at human TLR7, below 0.1 µM.
Regarding `COc1cc(-c2[nH]c3ccc(C4CCN(CC(=O)N(C)C)CC4)cc3c2C(C)C)c2ccccc2n1` [Example 340, 2-(4-(3-isopropyl-2-(2-5 methoxyquinolin-4-yl)-1H-indol-5-yl)piperidin-1-yl)-N,N-dimethylacetamide], the half-maximal inhibitory concentration (IC50) on human TLR8 is 0.1 to 1 µM; on human TLR9, 1 to 50 µM; against human TLR7 it was below 0.1 µM.
As for `CC(C)c1c(-c2ccnc3[nH]ncc23)[nH]c2ccc(C3CCN(C(=O)C[C@H](C)N)CC3)cc12` [Example 637, (S)-3-amino-1-(4-(3-isopropyl-2-(1H-pyrazolo[3,4-b]pyridin-4-yl)-1H-indol-5-yl)piperidin-1-yl)butan-1-one], the concentration for half-maximal inhibition (IC50) at human TLR8 was below 0.1 µM; against human TLR9, 1 to 50 µM; against human TLR7, below 0.1 µM.
For `CC(C)c1c(-c2cn(C)c3ncccc23)[nH]c2ccc(C3CCN(CC(=O)N(C)C)CC3)cc12` [Example 295, 2-(4-(3-isopropyl-2-(1-methyl-1H-pyrrolo[2,3-b]pyridin-3-yl)-1H-indol-5-yl)piperidin-1-yl)-N,N-dimethylacetamide], the IC50 against human TLR8 was below 0.1 µM; against human TLR9, 1 to 50 µM; on human TLR7, below 0.1 µM.
